The structures appear in SMILES notation.

23 compounds from US8455475B2 (Gruenenthal GmbH, priority 2009, dated 2013) can be followed below.

Experiment [1] deals with T1, rat B1R (bradykinin receptor 1) (Rattus norvegicus, UniProt P97583).
T1 construct: expressed in transfected cells; host or cells: CHO K1 cells
T1 sequence (P97583 1-337): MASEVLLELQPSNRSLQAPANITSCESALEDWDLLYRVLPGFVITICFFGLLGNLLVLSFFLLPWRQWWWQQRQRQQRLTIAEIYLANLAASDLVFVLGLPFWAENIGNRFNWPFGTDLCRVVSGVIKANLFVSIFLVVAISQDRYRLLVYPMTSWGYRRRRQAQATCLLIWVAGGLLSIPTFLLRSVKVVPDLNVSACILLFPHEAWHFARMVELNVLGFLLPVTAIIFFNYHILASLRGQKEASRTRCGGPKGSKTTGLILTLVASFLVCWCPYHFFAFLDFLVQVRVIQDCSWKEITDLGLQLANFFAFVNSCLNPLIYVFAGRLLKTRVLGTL
Put plainly: FLIPR Ca2+ assay (Fluo-4) on CHO K1 cells stably transfected with the B1R gene of the rat (rB1R cells): % inhibition at 10 μM / IC50, agonist Des-Arg9-bradykinin. It is filed as cell-based. Conditions: for inhibition at 10 µM: CHO-K1, rat B1R. The procedure, abridged: (§1)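 Cells were Fluo-4-loaded, then test compound (10 μM, or a concentration series for IC50) was preincubated 10–20 min before agonist challenge at EC80: Lys-Des-Arg9-bradykinin for hB1R, Des-Arg9-bradykinin for rB1R. Peak Ca2+ fluorescence (ex 488/em 540 nm) gave % inhibition versus maximal achievable inhibition.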

Experiment [2] concerns the target T2, human B1R (bradykinin receptor 1) (Homo sapiens, UniProt P46663).
T2 construct: expressed in transfected cells; host or cells: CHO K1 cells
T2 sequence (P46663 1-353): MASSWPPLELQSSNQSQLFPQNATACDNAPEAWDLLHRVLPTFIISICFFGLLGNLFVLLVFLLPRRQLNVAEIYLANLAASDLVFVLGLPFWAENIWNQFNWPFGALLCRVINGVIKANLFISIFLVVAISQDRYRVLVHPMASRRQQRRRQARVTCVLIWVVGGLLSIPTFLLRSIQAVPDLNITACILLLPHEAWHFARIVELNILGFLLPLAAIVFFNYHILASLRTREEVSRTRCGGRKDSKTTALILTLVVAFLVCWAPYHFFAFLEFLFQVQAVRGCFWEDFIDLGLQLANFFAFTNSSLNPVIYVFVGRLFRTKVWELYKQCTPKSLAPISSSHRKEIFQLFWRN
Put plainly: FLIPR Ca2+ assay (Fluo-4) on CHO K1 cells stably transfected with the human B1R gene (hB1R cells): % inhibition at 10 μM / IC50, agonist Lys-Des-Arg9-bradykinin. The format is cell-based. The settings on record: for inhibition at 10 µM: CHO-K1, human B1R. The procedure, abridged:
as §1

Turning to `CC1(C)CC(NC(=O)/C=C/c2ccccc2Cl)c2cc(C(=O)N3CCC4(CC3)CCN(c3ccncc3)CC4)ccc21` (stereo not shown) [Ind_CC-060, (E)-3-(2-chlorophenyl)-N-[3,3-dimethyl-6-(9-pyridin-4-yl-3,9-diazaspiro[5.5]undecane-3-carbonyl)-1,2-dihydro-inden-1-yl]-acrylamide], the inhibition – broadly, the relative decrease from the control value, in per cent – at 10 µM in experiment [1] came to 94%; in experiment [2], 93%.
In the same order, the values of `O=C(N[C@@H]1CCCc2ccc(C(=O)N3CCCC4(CCCN(c5ccncc5)C4)C3)cc21)c1ccccc1Cl` (stereo partly shown) [Example H-69] are 102% and 98%.
For the compound `O=C(N[C@@H]1CCCc2ccc(C(=O)N3CCC4(CCN(c5ccncc5)CC4)C3)cc21)c1ccccc1Cl` [Example H-11, 2-chloro-N-[(1R)-7-(8-pyridin-4-yl-3,8-diazaspiro[4.5]decane-3-carbonyl]-1,2,3,4-tetrahydro-naphthalen-1-yl]-benzamide], the values for the inhibition at 10 µM in experiment [1] and in experiment [2] were 103% and 99%, respectively.
For `O=C(c1ccc2c(c1)C(N(C(=O)c1ccccc1Cl)C1CC1)CC2)N1CCC2(CC1)CCN(c1cccnc1)CC2` (stereo not shown) [Ind_CC-114, 2-chloro-N-cyclopropyl-N-[6-(9-pyridin-3-yl-3,9-diazaspiro[5.5]undecane-3-carbonyl)-2,3-dihydro-1H-inden-1-yl]-benzamide], the figures for the inhibition at 10 µM in experiment [1] and in experiment [2] were 101% and 99%, respectively.
The matching figures for `CC1(C)CC(NC(=O)C(c2ccccc2)c2ccccc2Cl)c2cc(C(=O)N3CCC4(CC3)CCN(c3ccncc3)CC4)ccc21` (stereo not shown) [Ind_CC-056, 2-(2-chlorophenyl)-N-[3,3-dimethyl-6-(9-pyridin-4-yl-3,9-diazaspiro[5.5]-undecane-3-carbonyl)-1,2-dihydro-inden-1-yl]-2-phenyl-acetamide]: 94% and 41%.
Consider `CN(C(=O)c1ccc(Cl)s1)C1CCc2ccc(C(=O)N3CCC4(CC3)CCN(c3ccncc3)CC4)cc21` (stereo not shown) [Ind_CC-017, 5-chloro-N-methyl-N-[6-(9-pyridin-4-yl-3,9-diazaspiro[5.5]undecane-3-carbonyl)-2,3-dihydro-1H-inden-1-yl]-thiophene-2-carboxylic acid amide], for which the inhibition at 10 µM turned out to be 102% in experiment [1] and 99% in experiment [2].
For the compound `O=C(NC1CCc2ccc(C(=O)N3CCC4(CCN(c5ccncc5)CC4)C3)cc21)c1cccc(Cl)c1Cl` (stereo not shown) [IND_CC-284, 2,3-Dichloro-N-[6-(8-pyridin-4-yl-2,8-diazaspiro[4.5]decane-2-carbonyl)-2,3-dihydro-1H-inden-1-yl]-benzamide], the results for the inhibition at 10 µM in experiment [1] and in experiment [2] were 107% and 100%, respectively.
For the compound `CN(C(=O)Cc1ccccc1Cl)C1CCc2ccc(C(=O)N3CCC4(CC3)CCN(c3ccncc3)CC4)cc21` (stereo not shown) [Ind_CC-019, 2-(2-chlorophenyl)-N-methyl-N-[6-(9-pyridin-4-yl-3,9-diazaspiro[5.5]undecane-3-carbonyl)-2,3-dihydro-1H-inden-1-yl]-acetamide], the inhibition at 10 µM in experiment [1] was found to be 95%; in experiment [2], 99%.
Take `O=C(NC1CCc2ccc(C(=O)N3CCC4(CCN(c5ccncc5)CC4)C3)cc21)c1ccccn1` (stereo not shown) [Ind_CC-084, N-[6-(8-pyridin-4-yl-3,8-diazaspiro[4.5]decane-3-carbonyl)-2,3-dihydro-1H-inden-1-yl]-pyridine-2-carboxylic acid amide]: the inhibition at 10 µM came out at 100% in experiment [1] and 99% in experiment [2].
On to `O=C(N[C@H]1CCc2c(C(=O)N3CCC4(CCN(c5ccncc5)CC4)C3)cccc21)c1ccccc1Cl` [Example H-161, 2-Chloro-N-[(1S)-4-(8-pyridin-4-yl-3,8-diazaspiro[4.5]decane-3-carbonyl)-2,3-dihydro-1H-inden-1-yl]-benzamide], for which the inhibition at 10 µM in experiment [1] was 104%; in experiment [2] it was 89%.
Regarding `CN(C(=O)c1ccccn1)C1CCc2ccc(C(=O)N3CCC4(CC3)CCN(c3ccncc3)CC4)cc21` (stereo not shown) [Ind_CC-014, N-methyl-N-[6-(9-pyridin-4-yl-3,9-diazaspiro[5.5]undecane-3-carbonyl)-2,3-dihydro-1H-inden-1-yl]-pyridine-2-carboxylic acid amide], the inhibition at 10 µM in experiment [1] worked out at 101%; in experiment [2] it was 93%.
As for `O=C(NC1CCc2ccc(C(=O)N3CCC4(CC3)CCN(c3ccncc3)CC4)cc21)c1ccccc1Cl` (stereo not shown) [Example H-02, 2-chloro-N-[6-(3-pyridin-4-yl-3,9-diazaspiro[5.5]undecane-9-carbonyl)-2,3-dihydro-1H-inden-1-yl]-benzamide], the “% Inhibition (rat B1R) at 10 μM” value in experiment [1] (rat B1R, 10 µM) stood at 100%. In addition, the “% Inhibition (human B1R) at 10 μM” value in experiment [2] (human B1R, 10 µM) is listed as 100%.
As for `CN(C(=O)/C=C/c1ccccc1Cl)C1CCc2ccc(C(=O)N3CCC4(CC3)CCN(c3ccncc3)CC4)cc21` (stereo not shown) [Ind_CC-020, (E)-3-(2-chlorophenyl)-N-methyl-N-[6-(9-pyridin-4-yl-3,9-diazaspiro[5.5]undecane-3-carbonyl)-2,3-dihydro-1H-inden-1-yl]-acrylamide], the figures for the inhibition at 10 µM in experiment [1] and in experiment [2] were 88% and 89%, respectively.
In the same order, the values of `O=C(N[C@@H]1CCOc2c(F)cc(C(=O)N3CCC4(CCN(c5ccncc5)CC4)C3)cc21)c1ccccc1Cl` [Example H-73, 2-Chloro-N-[(4R)-8-fluoro-6-(8-pyridin-4-yl-3,8-diazaspiro[4.5]decane-3-carbonyl)-3,4-dihydro-2H-chromen-4-yl]-benzamide] are 103% and 100%.
With `O=C(NC1CCc2ccc(C(=O)N3CCC4(CCN(Cc5ccncc5)CC4)CC3)cc21)c1ccccc1Cl` (stereo not shown) [Ind_CC-098, 2-chloro-N-[6-[9-(pyridin-4-yl-methyl)-3,9-diazaspiro[5.5]undecane-3-carbonyl]-2,3-dihydro-1H-inden-1-yl]-benzamide], the inhibition at 10 µM in experiment [1] turned out to be 98%; in experiment [2] it was 34%.
Regarding `CC1(C)Cc2ccc(C(=O)N3CCC4(CC3)CCN(c3ccncc3)CC4)cc2C1NC(=O)c1ccc(Cl)cc1Cl` (stereo not shown) [Ind_CC-067, 2,4-dichloro-N-[2,2-dimethyl-6-(9-pyridin-4-yl-3,9-diazaspiro[5.5]undecane-3-carbonyl)-1,3-dihydro-inden-1-yl]-benzamide], the values for the inhibition at 10 µM in experiment [1] and in experiment [2] were 101% and 94%, respectively.
With `O=C(c1ccc2c(c1)C(N1Cc3cccc(Cl)c3C1=O)CC2)N1CCC2(CC1)CCN(c1ccncc1)CC2` (stereo not shown) [Example H-01, 7-chloro-2-[6-(9-pyridin-4-yl-3,9-diazaspiro[5.5]undecane-3-carbonyl)-2,3-dihydro-1H-indan-1-yl]-2,3-dihydro-isoindol-1-one], the inhibition at 10 µM was 97% in experiment [1] and 100% in experiment [2].
As for `O=C(NC1CCc2ccc(C(=O)N3CCC4(CCC(c5ccncc5)CC4)C3)cc21)c1ccccc1Cl` (stereo not shown) [Example H-133, 2-Chloro-N-[6-(8-pyridin-4-yl-3-azaspiro[4.5]decane-3-carbonyl)-2,3-dihydro-1H-inden-1-yl]-benzamide], the inhibition at 10 µM in experiment [1] turned out to be 100%; in experiment [2], 65%.
In the same order, the values of `O=C(NC1CCc2ccc(C(=O)N3CCC4(CCN(c5ccncc5)C4)C3)cc21)c1ccccc1Cl` (stereo not shown) [Example H-04, 2-chloro-N-[6-(8-pyridin-4-yl-3,8-diazaspiro[4.4]nonane-3-carbonyl)-2,3-dihydro-1H-inden-1-yl]-benzamide] are 106% and 100%.
`CC(C)(C(=O)N[C@@H]1CCc2ccc(C(=O)N3CCC4(CCN(c5ccncc5)CC4)C3)cc21)c1ccccc1Cl` [Example H-146, 2-(2-Chlorophenyl)-2-methyl-N-[(1R)-6-(8-pyridin-4-yl-3,8-diazaspiro[4.5]decane-3-carbonyl)-2,3-dihydro-1H-inden-1-yl]-propionamide]: the inhibition at 10 µM in experiment [1] stood at 102%; in experiment [2], 100%.
For the compound `O=C(NC1CCc2ccc(C(=O)N3CCC4(CC3)CCN(c3ccncc3)CC4)cc21)C(c1ccccc1)c1ccccc1Cl` (stereo not shown) [Ind_CC-009, 2-(2-chlorophenyl)-2-phenyl-N-[6-(9-pyridin-4-yl-3,9-diazaspiro[5.5]undecane-3-carbonyl)-2,3-dihydro-1H-inden-1-yl]-acetamide], the inhibition at 10 µM in experiment [1] was determined as 99%; in experiment [2], 87%.
Consider `Cc1cc2c(cc1C(=O)N1CCC3(CC1)CCN(c1ccncc1)CC3)[C@H](NC(=O)c1ccccc1Cl)CC2` [Example H-66, 2-Chloro-N-[(1R)-5-methyl-6-(9-pyridin-4-yl-3,9-diazaspiro[5.5]undecane-3-carbonyl)-2,3-dihydro-1H-inden-1-yl]-benzamide], for which the inhibition at 10 µM in experiment [1] came to 102%; in experiment [2], 99%.
Regarding `O=C(N[C@@H]1CCc2cc(C(=O)N3CCC4(CCN(c5ccncc5)CC4)C3)ccc21)c1ccccc1Cl` [Example H-171], the inhibition at 10 µM in experiment [1] worked out at 104%; in experiment [2] it was 100%.
